This is an account of results in US7183252B2, “Indole peptidomimetics as thrombin receptor antagonists” (Ortho-McNeil Pharmaceutical, Inc., priority 1999, dated 2007).

One may read the IC50 as the concentration at which inhibition is half-maximal.

Experiment [1] concerns the target T1, thrombin receptor (PAR-1) (Homo sapiens, UniProt P25116).
T1 construct: CHRF membranes (Jones, Biochim. Biophys. Acta 1992, 1136, 272) are thawed from −70° C; endogenous in cells; host or cells: CHRF cell membranes
T1 sequence (P25116 22-425): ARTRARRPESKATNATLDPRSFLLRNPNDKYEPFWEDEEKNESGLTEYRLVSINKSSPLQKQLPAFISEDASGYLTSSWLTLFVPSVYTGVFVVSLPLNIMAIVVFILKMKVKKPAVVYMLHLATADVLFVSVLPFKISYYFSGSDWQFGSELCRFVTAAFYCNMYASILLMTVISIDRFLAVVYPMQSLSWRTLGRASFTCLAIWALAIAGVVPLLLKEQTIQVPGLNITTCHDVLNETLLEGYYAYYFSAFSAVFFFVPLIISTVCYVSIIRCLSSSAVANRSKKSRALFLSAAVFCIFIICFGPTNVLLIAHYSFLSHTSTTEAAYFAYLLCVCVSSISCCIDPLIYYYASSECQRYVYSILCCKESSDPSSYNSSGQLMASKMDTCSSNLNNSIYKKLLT
Description: In vitro thrombin receptor binding assay (CHRF membranes). The conditions noted are these: tritiated 721-40 radioligand, read-out: Bndg IC50 (Thrombin receptor binding). In a few lines:
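CHRF cell membranes incubated 30 min with tritiated peptide agonist 721–40 and compound at 3.7 μg/mL final (0.6% DMSO) in HEPES/MgCl2/BSA buffer. Nonspecific binding defined with unlabeled 721–40; bound radioactivity counted after filtration onto PEI-treated filters.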

The subject of a further experiment is gel-filtered platelets. The experiment in a line: In vitro inhibition of thrombin-induced gel-filtered platelet aggregation. It is filed as cell-based. The conditions noted are these: human gel-filtered platelets, agonist thrombin 50 μL of 1 unit/mL, read-out: Thrmb IC50 (Thrombin-induced aggregation of gel-filtered platelets). In a few lines:
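Gel-filtered (Sepharose 2B) human platelets from citrated PRP, 2×10^7 per sample, in Tyrode's buffer pH 7.4 with BSA and added calcium, preincubated with test compound. Aggregation induced by thrombin (50 μL of 1 unit/mL) and followed as light transmission over 3 min. Inhibition is taken relative to control-treated platelets.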

Like-named read-outs stand apart in the source and are kept apart here.

`NCCC[C@H](NC(=O)[C@H](Cc1ccc(F)c(F)c1)NC(=O)Nc1ccc2c(CN3CCCC3)cn(Cc3c(Cl)cccc3Cl)c2c1)C(=O)NCc1ccccn1` [Compound 117]: the IC50 in experiment [1] was found to be 1000 nM; with gel-filtered platelets (Platelet), 4100 nM.

In the case of `CC(=N)NCC[C@H](NC(=O)[C@H](Cc1ccc(F)c(F)c1)NC(=O)Nc1ccc2c(CN3CCCC3)cn(Cc3c(Cl)cccc3Cl)c2c1)C(=O)NCc1ccccc1` [Compound 118], the figures for the IC50 (in experiment [1]; in the experiment on gel-filtered platelets (Platelet)) were 430 nM and 280 nM, respectively.

For the molecule `CN(Cc1cn(Cc2c(Cl)cccc2Cl)c2cc(NC(=O)N[C@@H](Cc3ccc(Cl)cc3)C(=O)N[C@@H](CCCN)C(=O)NCCc3ccccc3Cl)ccc12)C1CCCC1` [Compound 119], the IC50 was determined as 6200 nM in experiment [1] and 3200 nM with gel-filtered platelets (Platelet).

With `CN(Cc1cn(Cc2c(Cl)cccc2Cl)c2cc(NC(=O)N[C@@H](Cc3ccc(Cl)cc3)C(=O)N[C@@H](CCCN)C(=O)NC3Cc4ccccc4C3)ccc12)CC1OCCO1` [Compound 122], the IC50 in experiment [1] is 10500 nM; in the experiment with gel-filtered platelets (Platelet) it was 3500 nM.

For `Cn1cnc(CCNC(=O)[C@H](CCCN)NC(=O)[C@H](Cc2ccc(F)c(F)c2)NC(=O)Nc2ccc3c(CN4CCCC4)cn(Cc4c(Cl)cccc4Cl)c3c2)c1` [Compound 124], the values for the IC50 (in experiment [1]; in the experiment with gel-filtered platelets) were 1200 nM and 440 nM, respectively.

Regarding `NCCC[C@H](NC(=O)[C@H](Cc1ccc(F)c(F)c1)NC(=O)Nc1ccc2c(CN3CCCC3)cn(Cc3c(Cl)cccc3Cl)c2c1)C(=O)NC1CCCC1` [Compound 125], the IC50 in experiment [1] was 660 nM; with gel-filtered platelets (Platelet), 430 nM.

Consider `CN(C)CCNC(=O)[C@H](CCCN)NC(=O)[C@H](Cc1ccc(F)c(F)c1)NC(=O)Nc1ccc2c(CN3CCCC3)cn(Cc3c(Cl)cccc3Cl)c2c1` [Compound 126], for which the IC50 in experiment [1] came out at 1500 nM; with gel-filtered platelets (Platelet) it was 460 nM.

Turning to `NCCC[C@H](NC(=O)[C@H](Cc1ccc(F)c(F)c1)NC(=O)Nc1ccc2c(CN3CCCC3)cn(Cc3c(Cl)cccc3Cl)c2c1)C(=O)Nc1ccccc1` [Compound 127], the IC50 in experiment [1] was determined as 2400 nM; in the experiment with gel-filtered platelets (Platelet), 930 nM.

With `NCC[C@H](NC(=O)[C@H](CCc1ccccc1)NC(=O)Nc1ccc2c(CN3CCCC3)cn(Cc3c(Cl)cccc3Cl)c2c1)C(=O)NCc1ccccc1` [Compound 128], the IC50 in experiment [1] is 3400 nM; in the experiment on gel-filtered platelets (Platelet), 18800 nM.

As for `NCC[C@H](NC(=O)[C@H](Cc1ccc2ccccc2c1)NC(=O)Nc1ccc2c(CN3CCCC3)cn(Cc3c(Cl)cccc3Cl)c2c1)C(=O)NCc1ccccc1` [Compound 129], the values for the IC50 (in experiment [1]; in the experiment on gel-filtered platelets (Platelet)) were 2500 nM and 860 nM, respectively.

As to `NCC[C@H](NC(=O)[C@H](Cc1cccnc1)NC(=O)Nc1ccc2c(CN3CCCC3)cn(Cc3c(Cl)cccc3Cl)c2c1)C(=O)NCc1ccccc1` [Compound 130], the concentration for half-maximal inhibition (IC50) in experiment [1] came out at 4800 nM; with gel-filtered platelets (Platelet), 27800 nM.

Take `NCC[C@H](NC(=O)[C@H](Cc1cccs1)NC(=O)Nc1ccc2c(CN3CCCC3)cn(Cc3c(Cl)cccc3Cl)c2c1)C(=O)NCc1ccccc1` [Compound 131]: the IC50 in experiment [1] came to 1900 nM; with gel-filtered platelets (Platelet) it was 940 nM.

As to `NCC[C@H](NC(=O)[C@H](Cc1cscn1)NC(=O)Nc1ccc2c(CN3CCCC3)cn(Cc3c(Cl)cccc3Cl)c2c1)C(=O)NCc1ccccc1` [Compound 132], the IC50 in experiment [1] was 4200 nM; in the experiment with gel-filtered platelets (Platelet) it was 22000 nM.

As to `NCCNC(=O)[C@H](Cc1ccccc1)NC(=O)[C@H](Cc1ccc(Cl)cc1)NC(=O)Nc1ccc2c(CN3CCCC3)cn(Cc3c(Cl)cccc3Cl)c2c1` [Compound 133], the IC50 in experiment [1] was determined as 1500 nM; in the experiment with gel-filtered platelets (Platelet) it was 860 nM.

`NCCNC(=O)[C@H](Cc1c[nH]cn1)NC(=O)[C@H](Cc1ccc(Cl)cc1)NC(=O)Nc1ccc2c(CN3CCCC3)cn(Cc3c(Cl)cccc3Cl)c2c1` [Compound 134]: the results for the IC50 (in experiment [1]; in the experiment on gel-filtered platelets (Platelet)) were 1200 nM and 950 nM, respectively.

For `NCCNC(=O)[C@H](Cc1ccncc1)NC(=O)[C@H](Cc1ccc(Cl)cc1)NC(=O)Nc1ccc2c(CN3CCCC3)cn(Cc3c(Cl)cccc3Cl)c2c1` [Compound 135, L-Alaninamide, 4-chloro-N-[[[1-[(2,6-dichlorophenyl)methyl]-3-(1-pyrrolidinylmethyl)-1H-indol-6-yl]amino]carbonyl]-L-phenylalanyl-N-(2-aminoethyl)-3-(4-pyridinyl)-], the IC50 came to 890 nM in experiment [1] and 690 nM with gel-filtered platelets.

As for `NCCNC(=O)[C@H](Cc1cccs1)NC(=O)[C@H](Cc1ccc(Cl)cc1)NC(=O)Nc1ccc2c(CN3CCCC3)cn(Cc3c(Cl)cccc3Cl)c2c1` [Compound 136], the figures for the IC50 (in experiment [1]; with gel-filtered platelets (Platelet)) were 1100 nM and 550 nM, respectively.

As to `NCCNC(=O)[C@H](Cc1cscn1)NC(=O)[C@H](Cc1ccc(Cl)cc1)NC(=O)Nc1ccc2c(CN3CCCC3)cn(Cc3c(Cl)cccc3Cl)c2c1` [Compound 137], the IC50 in experiment [1] stood at 810 nM; in the experiment on gel-filtered platelets (Platelet), 940 nM.

For the molecule `NCCNC(=O)[C@H](Cc1cccc(F)c1)NC(=O)[C@H](Cc1ccc(F)c(F)c1)NC(=O)Nc1ccc2c(CN3CCCC3)cn(Cc3c(Cl)cccc3Cl)c2c1` [Compound 138], the values for the IC50 (in experiment [1]; in the experiment with gel-filtered platelets (Platelet)) were 2000 nM and 330 nM, respectively.

Take `CC(=N)NCCNC(=O)[C@H](Cc1ccncc1)NC(=O)[C@H](Cc1ccc(Cl)cc1)NC(=O)Nc1ccc2c(CN3CCCC3)cn(Cc3c(Cl)cccc3Cl)c2c1` [Compound 139]: the IC50 in experiment [1] was determined as 1000 nM; with gel-filtered platelets (Platelet), 330 nM.

Take `CC(=N)NCCNC(=O)[C@H](CCNC(C)=N)NC(=O)[C@H](Cc1ccc(F)c(F)c1)NC(=O)Nc1ccc2c(CN3CCCC3)cn(Cc3c(Cl)cccc3Cl)c2c1` [Compound 140]: the IC50 in experiment [1] is 120 nM; in the experiment with gel-filtered platelets (Platelet), 740 nM.

`NCC[C@H](NC(=O)[C@H](Cc1ccc(F)c(F)c1)NC(=O)Nc1ccc2c(CN3CCCC3)cn(Cc3c(Cl)cccc3Cl)c2c1)C(=O)NCCN1CCCC1` [Compound 141]: the IC50 in experiment [1] was 70 nM; with gel-filtered platelets (Platelet) it was 200 nM.

As for `NCC[C@H](NC(=O)[C@H](Cc1ccc(F)c(F)c1)NC(=O)Nc1ccc2c(CN3CCCC3)cn(Cc3c(Cl)cccc3Cl)c2c1)C(=O)NCCc1c[nH]cn1` [Compound 142], the IC50 in experiment [1] came to 480 nM; in the experiment on gel-filtered platelets (Platelet) it was 1900 nM.

Consider `CSCC[C@H](NC(=O)[C@H](Cc1ccc(F)c(F)c1)NC(=O)Nc1ccc2c(CN3CCCC3)cn(Cc3c(Cl)cccc3Cl)c2c1)C(=O)NCCN` [Compound 143], for which the IC50 in experiment [1] came out at 20 nM; in the experiment on gel-filtered platelets (Platelet) it was 290 nM.

Turning to `CCOC(=O)N1CCC(NC(=O)[C@H](CCN)NC(=O)[C@H](Cc2ccc(F)c(F)c2)NC(=O)Nc2ccc3c(CN4CCCC4)cn(Cc4c(Cl)cccc4Cl)c3c2)CC1` [Compound 144], the figures for the IC50 (in experiment [1]; in the experiment with gel-filtered platelets (Platelet)) were 70 nM and 320 nM, respectively.

Consider `NCCCNC(=O)[C@H](Cc1ccncc1)NC(=O)[C@H](Cc1ccc(Cl)cc1)NC(=O)Nc1ccc2c(CN3CCCC3)cn(Cc3c(Cl)cccc3Cl)c2c1` [Compound 145], for which the results for the half-inhibitory concentration (IC50) (in experiment [1]; in the experiment with gel-filtered platelets (Platelet)) were 500 nM and 250 nM, respectively.

With `NCCNC(=O)CCNC(=O)[C@H](Cc1ccc(Cl)cc1)NC(=O)Nc1ccc2c(CN3CCCC3)cn(Cc3c(Cl)cccc3Cl)c2c1` [Compound 146], the IC50 is 2800 nM in experiment [1] and 11100 nM in the experiment with gel-filtered platelets (Platelet).

As to `NCCNC(=O)CNC(=O)[C@H](Cc1cccc(F)c1)NC(=O)Nc1ccc2c(CN3CCCC3)cn(Cc3c(Cl)cccc3Cl)c2c1` [Compound 147], the IC50 in experiment [1] amounted to 420 nM; in the experiment on gel-filtered platelets (Platelet), 4400 nM.

Turning to `CC(C)[C@H](NC(=O)[C@H](Cc1ccc(Cl)cc1)NC(=O)Nc1ccc2c(CN3CCCC3)cn(Cc3c(Cl)cccc3Cl)c2c1)C(=O)NCCN` [Compound 148], the IC50 in experiment [1] stood at 140 nM; with gel-filtered platelets (Platelet), 1400 nM.

As for `CCSC[C@H](NC(=O)[C@H](Cc1ccc(Cl)cc1)NC(=O)Nc1ccc2c(CN3CCCC3)cn(Cc3c(Cl)cccc3Cl)c2c1)C(=O)NCCN` [Compound 149], the IC50 was 150 nM in experiment [1] and 1200 nM in the experiment on gel-filtered platelets (Platelet).

Regarding `NCCNC(=O)[C@H](CO)NC(=O)[C@H](Cc1ccc(F)c(F)c1)NC(=O)Nc1ccc2c(CN3CCCC3)cn(Cc3c(Cl)cccc3Cl)c2c1` [Compound 150], the IC50 was determined as 100 nM in experiment [1] and 1400 nM with gel-filtered platelets (Platelet).

As to `NCCNC(=O)[C@H](CSC(c1ccccc1)(c1ccccc1)c1ccccc1)NC(=O)[C@H](Cc1ccc(F)c(F)c1)NC(=O)Nc1ccc2c(CN3CCCC3)cn(Cc3c(Cl)cccc3Cl)c2c1` [Compound 151], the results for the IC50 (in experiment [1]; in the experiment on gel-filtered platelets) were 450 nM and 2900 nM, respectively.

Consider `Cc1cccc(Cn2cc(CN3CCCC3)c3ccc(NC(=O)N[C@@H](Cc4ccc(F)c(F)c4)C(=O)N[C@@H](Cc4cccs4)C(=O)NCCCN)cc32)c1` [Compound 153], for which the IC50 in experiment [1] came to 27000 nM; in the experiment on gel-filtered platelets (Platelet), 790 nM.

With `NCC[C@H](NC(=O)[C@H](Cc1ccc(F)c(F)c1)NC(=O)Nc1ccc2c(CN3CCSC3)cn(Cc3c(Cl)cccc3Cl)c2c1)C(=O)NCc1ccccc1` [Compound 154], the results for the IC50 (in experiment [1]; in the experiment on gel-filtered platelets (Platelet)) were 750 nM and 12900 nM, respectively.
